Data from patent EP0947494A1, “Derivatives of phenoxy acetic acid and phenoxymethyltetrazole having antitumor activity” (F. HOFFMANN-LA ROCHE AG, priority 1998, dated 1999).

Experiments:
MCF-7 cells = assay: Radiosensitizing activity assay, surviving cells counted by trypan blue staining; type: cell-based, Human
Protocol: (§1) Biological assay for radiosensitizing activity of MDM2 antagonistic compounds: Human tumor cell lines containing wild-type p53 and low levels of GST, such as MCF7 (breast carcinoma) or mutant p53 and a high GST content, such as MCF7 ADR (adriamycin-resistant breast carcinoma) are cultivated in RPMI medium, supplemented with 10% fetal calf serum to a semi-confluent state.
(§2) In order to determine the radiosensitizing activity of selected compounds on these cells a minimal toxic dose was determined as 2Gy (gray: J/kg) with a ^137Cesium source at room temperature. Following irradiation of monolayer cells in exponential growth phase with 2 Gy, cells were incubated with various concentrations of the selected compounds for 2-6 h. Cells were trypsinized and seeded in appropriate dilutions into 6 well plates. Surviving cells were trypsinized after 12-13 days and cell number was determined by staining with trypane blue for living/dead cells. The protocol was established according to Khil et al., 1996, Int. J. Rad. Oncol. Biol. Phys. 34, 375-380.

HT29 cytosolic GST = HT29 cytosolic GST (Homo sapiens, UniProt P09211); assay: Spectrophotometric GST activity analysis in HT29 cell extracts (CDNB/glutathione); type: biochemical; conditions: HT29 cell extract
Protocol: GST catalyzes the conjugation of CDNB with glutathione and results in a CDNB-glutathione product with a strong molar absorption at 340 nm. The change of absorption is monitored for 5 min.
1 x 10^6 cells are collected and washed once with ice-cold phosphate-buffered saline at 1000 rpm for 10 min at 4°C. Cell pellets are resuspended in 200 µl ice-cold phosphate-buffered saline, and are sonicated for 2 min on ice. The sonicate is then centrifuged at 11750 g, 4°C for 15 min in an Eppendorf Centrifuge, and the supernatant is assayed for GST activity.

MCF-7 ADR cells = assay: Radiosensitizing activity assay, surviving cells counted by trypan blue staining; type: cell-based, Human; conditions: for radiosensitization: MCF-7 ADR cells (mutant p53, high GST content); for % living cells relative to control without drug treatment: MCF-7ADR
Protocol: as §1
as §2, with “Following irradiation of monolayer cells in exponential growth phase with 2 Gy, cells were incubated with various concentrations of the selected compounds for 2-6 h.” left out

MDM2 = biological target: T1, MDM2 (Homo sapiens, UniProt Q00987); assay: Interaction of compounds with MDM2; type: binding
T1 construct: 40 µl of mdm2 1-213 (100nM in PBST) were mixed with 40 µl of the sample; made in house
Protocol: BIACORE analysis of the interaction between MDM2 and p53: To quantify the effect of selected compounds on the p53 binding properties of MDM2 protein biosensor measurements using BIACORE 2000 are performed. BIACORE 2000 is a biosensor system delivered from BIACORE AB. The technology of this biosensor is based on the optical phenomenon of surface plasmon resonance (SRP), which detects changes in refractive index of the solution close to the surface of the sensor chip. The refractive index is directly correlated to the mass concentration in the layer and increases when analyte binds to a surface immobilized ligand. Experiments are performed under continuous flow conditions. The SPR response expressed in resonance units (RU) is recorded continuously versus time resulting in a sensorgram. When one interaction is completed, the surface can be regenerated using solutions which remove bound analyte without affecting the activity of the bound ligand. […] After additional 4 minutes rinsing the surface with PBST buffer, a signal was recorded. By comparing the signals of the samples with those of buffer, the inhibitory effects of the samples could be evaluated. […]

[1] = 2 Gy + drug 20 µg/ml, drug incubation time following irradiation 0 hours
[2] = 2 Gy + drug 20 µg/ml, drug incubation time following irradiation 2 hours
[3] = 2 Gy + drug 20 µg/ml, drug incubation time following irradiation 6 hours
[4] = drug alone 20 µg/ml, drug incubation time 0 hours
[5] = drug alone 20 µg/ml, drug incubation time 2 hours
[6] = drug alone 20 µg/ml, drug incubation time 6 hours

Chain of HT29 cytosolic GST (P09211 2-210): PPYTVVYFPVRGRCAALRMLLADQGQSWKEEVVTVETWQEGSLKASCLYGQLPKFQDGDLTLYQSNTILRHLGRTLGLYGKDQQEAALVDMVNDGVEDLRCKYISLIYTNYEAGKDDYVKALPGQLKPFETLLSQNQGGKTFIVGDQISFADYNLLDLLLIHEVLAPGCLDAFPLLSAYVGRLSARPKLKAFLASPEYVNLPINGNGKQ
T1 sequence (Q00987 1-213): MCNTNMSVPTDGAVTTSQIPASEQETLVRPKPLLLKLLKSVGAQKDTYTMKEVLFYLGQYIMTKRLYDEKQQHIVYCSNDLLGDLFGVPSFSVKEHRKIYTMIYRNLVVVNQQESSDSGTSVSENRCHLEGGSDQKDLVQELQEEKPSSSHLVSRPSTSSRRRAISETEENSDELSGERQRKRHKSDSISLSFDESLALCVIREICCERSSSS

Compound | % living cells relative to control without drug treatment (MCF-7 cells; [1]) [%] | % living cells relative to control without drug treatment (MCF-7 cells; [2]) [%] | % living cells relative to control without drug treatment (MCF-7 cells; [3]) [%] | % living cells relative to control without drug treatment (MCF-7 cells; [4]) [%] | % living cells relative to control without drug treatment (MCF-7 cells; [5]) [%] | % living cells relative to control without drug treatment (MCF-7 cells; [6]) [%] | enhancement of irradiation by the drug (factor) (MCF-7 cells; drug incubated for 2 hours) | enhancement of irradiation by the drug (factor) (MCF-7 cells; drug incubated for 6 hours) | radiosensitization (MCF-7 ADR cells) | % living cells relative to control without drug treatment (MCF-7 ADR cells; [1]) [%] | % living cells relative to control without drug treatment (MCF-7 ADR cells; [2]) [%] | % living cells relative to control without drug treatment (MCF-7 ADR cells; [3]) [%] | % living cells relative to control without drug treatment (MCF-7 ADR cells; [4]) [%] | % living cells relative to control without drug treatment (MCF-7 ADR cells; [5]) [%] | % living cells relative to control without drug treatment (MCF-7 ADR cells; [6]) [%] | also measured
O=C(O)COc1ccc(C(=O)/C=C/c2ccc(Cl)c(Cl)c2)cc1 [LSM 83177, 3,4-dichloro-4'-(carboxymethoxy)chalcone] | 100 | 41.8 | 17 | 100 | 64.1 | 36.4 | 1.5 | 2 | Radiosensitizing activity independent of the GST content of the target cell can be observed | 100 | 72.8 | 48.8 | 100 | 87.2 | 85.7 | activity at 0.2 µg/mL (HT29 cytosolic GST; concentration 0,2 µg/ml): 100%; activity at 0.04 µg/mL (HT29 cytosolic GST; concentration 0,04 µg/ml): 100%; activity at 0.4 µg/mL (HT29 cytosolic GST; concentration 0,4 µg/ml): 100%; activity at 1 µg/mL (HT29 cytosolic GST; concentration 1 µg/ml): 100%; activity at 2 µg/mL (HT29 cytosolic GST; concentration 2 µg/ml): 100%; activity at 5 µg/mL (HT29 cytosolic GST; concentration 5 µg/ml): 73%; activity at 8 µg/mL (HT29 cytosolic GST; concentration 8 µg/ml): 46%; activity at 10 µg/mL (HT29 cytosolic GST; concentration 10 µg/ml): 26%; activity at 20 µg/mL (HT29 cytosolic GST; concentration 20 µg/ml): 0%; activity at 1.3 µg/mL (HT29 cytosolic GST; concentration 1,3 µg/ml): 100%; activity at 2.5 µg/mL (HT29 cytosolic GST; concentration 2,5 µg/ml): 95%
C=C(CC)C(=O)c1ccc(OCC(=O)O)c(Cl)c1Cl [ethacrynic acid, reference compound] | 100 | 42.7 | 20.5 | 100 | 52.3 | 43.1 | 1.5 | 2 | does not mediate any radiosensitization | 100 | 82.5 | 133.6 | 100 | 88.9 | 99 | interaction with MDM2 (MDM2): interaction of ethacrynic acid with MDM2 was surprisingly observed
